Each structure is given as a SMILES string.

One data set can be described thus: in vivo. Also noted: species or system rat (male Sprague-Dawley). Particulars: rat. As for the experimental part: This is in contrast to the actions of the preferential dopamine autoreceptor antagonists (+)-AJ76 and (+)-UH232 5. The blood levels of (±)-34 were measured after oral (40 μmol/kg) and iv (5 μmol/kg) administration of the drug to male Sprague-Dawley rats (250-300 g) that were cannulated with catheters in the jugular vein and the arteria carotis. The levels of (±)-34 were measured in whole blood by means of GC-MS. […] The oral availability is considerably better than the values obtained for (+)-UH232 and (+)-AJ76 (approximately 6 and 3%, respectively).

For data set [1], the system named is central dopamine receptors. As to conditions: Hacksell et al., J. Med. Chem., 24, 1475 (1981); cited from earlier work.
Another data set has as its system D3. As to conditions: Sokoloff, et al., Nature, 347 146-51 (1990); series of classical and atypical neuroleptics; cited from earlier work.
Data set [2] concerns DA receptor. As to conditions: no NSD1015 treatment; Johansson et al.; cited from earlier work.
Another data set concerns non-pretreated rats. Particulars: Johansson et al.; cited from earlier work.
Data set [3] concerns d-amphetamine-induced hyperactivity. As to the kind of experiment: d-Amphetamine-induced hyperactivity in habituated rats. It counts as in vivo, rat. As to conditions: test compound 14 mg/kg, sc; d-amphetamine 5 mg/kg.
The subject of data set [4] is DA receptor. As to conditions: after NSD1015; Johansson et al.; cited from earlier work.
For data set [5] the following is noted: comparison values, source not given; cited from earlier work.

As for `CCCN1CCCC(c2cccc(C#N)c2)C1` (racemic) [(±)-34, 3-(3-cyanophenyl-N-n-propyl)piperidine], the half-life in “in vivo” (iv) was about 3 h. This compound displayed a bioavailability in “in vivo” (po, oral bioavailability) of about 78%. Further, in data set [1], the “direct receptor agonistic effects in reserpinized rats” value was “no direct receptor agonistic effects”.
Turning to `CCCN[C@@H]1CCc2c(OC)cccc2[C@@H]1C` [(+)-AJ76, (+)-cis-1S,2R-5-methoxy-1-methyl-2-(N-n-propylamino)tetralin], the “preference for the D3 site” value in the data set with D3 was “highest preference for the D3 site”. In the data set on DA receptor [2], the “levels of the DA metabolites DOPAC and HVA” value is “raise the levels of the DA metabolites DOPAC and HVA”. Moreover, the “locomotor activity (photocell motility meters)” value in the data set on non-pretreated rats was “increase the locomotor activity”. In addition, in data set [3], the “effect on activation induced by high dose d-amphetamine” value is “clearly blocked the stimulation”. Moreover, the “Dopa accumulation in normal animals” value in the data set on DA receptor [4] is on record as “raise the Dopa accumulation”. Moreover, in data set [5], the oral availability entry is recorded as “approximately 3%”.

Usually half-life stands for the time needed for the level to fall by half in the phase considered. Higher therefore signals slow decline. For orientation: bioavailability means dose-corrected exposure relative to a reference, in per cent.

(Values after patent publication US5594024A, “Centrally actig substituted phenylazacycloalkanes” (priority 1995, dated 1997).)
